Key:
[1] = system: human bronchial epithelia; test: Southern blot of Hirt DNA for rAAV genomes in polarized airway epithelia; type: cell-based
Experimental: FIGS. 15A–C. Examination of rAAV endocytosis by Southern blot analysis of viral DNA. Hirt DNA from AV.GFP3ori infected or mock infected (Lanes 1 and 7 in both FIGS. 15A and 15B) human bronchial epithelia were extracted for a direct examination of viral genomes by Southern blotting against a P^32-labeled EGFP probe. FIG. 15A depicts viral binding studies in the presence and absence of LLnL with or without EGTA treatment prior to apical or basolateral infection for 1 hour at 4° C. Cell surface-bound virus was completely removed by trypsin (FIG. 15A, lanes 2 through 6). To determine the amount of the surface-bound rAVV, cells were infected with AV.GFP3ori for 1 hour at 4° C. and were not treated with trypsin prior to Hirt DNA extraction. Panel A: lane 8: apical AAV infection; lane 9: apical AAV infection in the presence of LLnL; lane 10: cells were pre-treated with hypotonic EGTA prior to apical infection in the presence of LLnL; lane 11: basolateral infection; lane 12: basolateral infection in the presence of LLnL. FIG. 15B depicts the results of studies evaluating rAAV internalization from either the apical or the basolateral surface in the presence or absence of LLnL, and the internalization from the apical surface after combined treatment with hypotonic EGTA and LLnL. To detect the net amount of the internalized viral genome, all samples in FIG. 15B were treated with trypsin just before Hirt DNA was harvested. The extent of the internalized virus at 4 hours (FIG. 15B, lanes 2 through 6) and 24 hours (FIG. 15B, lanes 8 through 12) incubation at 37° C. after infection is represented by the intensity of the 1.6 kb single stranded viral genome band. FIG. 15B; lane 2; apical AAV infection for 4 hours; lane 3: apical AAV infection in the presence of LLnL for 4 hours; lane 4: cells were pre-treated with hypotonic EGTA prior to apical infection in the presence of LLnL for 4 hours; lane 5: basal infection for 4 hours; lane 6: basolateral infection in the presence of LLnL for 4 hours; lane 8: apical infection for 24 hours; lane 9: apical infection in the presence of LLnL for 24 hours; lane 10: cells were pre-treated with hypotonic EGTA prior to apical infection in the presence of LLnL for 24 hours; lane 11: basolateral infection for 24 hours; lane 12: basolateral infection in the presence of LLnL for 24 hours. […]
Molecular analysis of rAAV viral genomes owing infection of polarized airway epithelial cultures. […] Following binding, the extent of viral internalization was assessed by continuing incubations in the presence of virus at 37° C. for 4–24 hours. […] The 1.6 kb single stranded viral DNA, the 2.7 kb double stranded circular intermediate, and the 4.7 kb double stranded replication from viral genome were detected with a transgene EGFP specific probe at 5×10^6 cpm/ml. […]

[2] = system: polarized human bronchial epithelial cells; type: cell-based
Experimental: FIGS. 7A and 7B. Proteasome inhibitors differentially augment rAAV transduction from the apical or basolateral surfaces of airway epithelia. The efficiency and time course of rAAV transduction were evaluated in polarized airway epithelial cultures following infection with rAV.GFPori3 (MOI=10,000 particles/cell) in the presence or absence of 40 μM LLnL. Transgene expression was monitored by indirect fluorescence microscopy at the indicted time points by quantifying the mean number of GFP positive cells per 10× field (mean +/−SEM of 3 independent samples for each time point). The effect of LLnL treatment was compared between matched sets of tissue samples at each time point following infection from the apical (FIG. 7A) or basolateral (FIG. 7B) surfaces. The photomicrographs on the right side of each figure illustrate representative 20× fields for the 3 and 22 day post-infection time points.
FIG. 9. Effects of different agents on AAV transduction from the basal surface of polarized bronchial epithelia. Fully differentiated human bronchial airway epithelia were treated with the indicated agents at the time of AAV infection (MOI=10,000 particles/cell) from the basolateral surface. […] Since most of the tested agents (except for hydroxyurea) were dissolved in DMSO, a vehicle control of 1% (vol/vol) DMSO was also performed to exclude the possibility of a non-specific effect. GFP expression was monitored at 48 hours post-infection by counting the number of GFP positive cells per 10 random 10× fields in the culture dishes. The data represent the mean +/−SEM of three independent infections for each tested chemical.
FIG. 10. The proteasome inhibitor LLnL preferentially induces AAV transduction in ciliated cells. The cell types transduced by AAV were examined by alkaline phosphatase staining 3 days following basolateral infection of polarized epithelial cultures with AV.Alkphos infection (MOI=10,000 particles/cell) in the presence of or absence of 40 μM LLnL. […] 8 μm paraffin sections were used to histologically quantify the types of cells transduced. Three classifications were used, ciliated cells (with alkphos expression localized to the apical membrane and cilia), basal cells residing in the lower half of the epithelium with no contact with the lumen, and non-ciliated, columnar cells. Panel C (without LLnL) and D (with LLnL) show representative neutral red counter-stained cross-sections for each condition. The numbers of alkphos stained cells/2000 epithelial cells for the various cell types transduced by AAV are presented in panel E (mean +/−SEM from three independent Millicell insert samples).
FIGS. 11A and 11B. Optimization of LLnL-enhanced transduction in polarized bronchial epithelia. Differentiated transwell cultures were infected with AV.GFP3ori (10,000 particles/cell) from either the basolateral (FIG. 11A) or the apical (FIG. 11B) surface with the indicated treatments involving LLnL and/or EGTA. All infections were carried out for 24 hours and GFP transgene expression was monitored by indirect fluorescent microscopy at the indicated times. Data represent the mean (+/−SEM, N=6) for each experimental condition. Experiments were performed in triplicate on transwells derived from samples obtained from two different patients. […]

## N-acetyl-L-leucinyl-L-leucinal-L-norleucinal [LLnL]
[1]; 1 hour at 4° C.
  rAAV binding to either surface (Southern blot): not affected
[1]; LLnL alone
  enzymatic degradation of internalized AAV viral DNA: did not substantially prevent enzymatic degradation
[1]; hypotonic EGTA pretreatment and LLnL
  amount of virus internalized from apical surface: substantially increased the amount of virus internalized
[2]; LLnL and rAAV co-administered to the mucosal surface
  time of peak augmentation in AAV transduction: 22 days post-infection
[2]; apical infection with LLnL, by 30 days
  maximal level of transgene expression relative to basal infection: one eighth
[2]; basolateral (serosal) infection MOI 10,000, agent at time of infection, GFP at 48 hours/2 days, camptothecin 0.1 μM, etoposide 10 μM, hydroxyurea 40 mM, genistein 50 μM, LLnL 40 μM
  enhancement in rAAV transduction from the basolateral surface: greater than 200 fold
[2]; basolateral infection, LLnL once every three days
  effect of repeated LLnL administration on transgene expression: increased length of peak transgene expression
[2]; continual exposure to 40 μM LLnL in basal medium after basolateral infection
  toxicity to cultured airway cells: toxic to cells and ablated transgene expression by 10 days
[2]; rAAV infection from the serosal surface in the presence of LLnL
  time of transient peak in gene expression: 72 hours post-infection
[2]; serosal application of AV.Alkphos, 40 μM LLnL, 3 days
  AV.Alkphos transduction: dramatic increase in AV.Alkphos transduction

From US7122335B1, “Compounds and methods to enhance rAAV transduction” (priority 1999, dated 2006)
